# Results published in publication PMC11597353, “Synthesis of Novel Gefitinib-Conjugated 1,2,3-Triazole Derivatives and Their Effect of Inducing DNA Damage and Apoptosis in Tumor Cells” (Molecules, 2024).
# Tests used:
# HepG2 cells [1] = assay: Colony formation assay; type: cell-based, human; details: 7 days
# Method: A colony formation assay is used to assess the ability of adherent cells to proliferate and form cell colonies on a plate, making it one of the key methods for evaluating cell proliferation. We also employed the colony formation assay to further confirm that compounds 11m and 11t can inhibit liver cancer cell proliferation (as shown in Figure 5). HepG2 cells were treated with low, medium, and high concentrations (2, 4, and 8 μmol/L) of the compounds for 7 days, followed by counting the number of cell colonies and analyzing the proliferation inhibition rate.
# HepG2 cells were seeded in 6-well plates at a density of 500 cells per well and incubated at 37 °C for 24 h, followed by treatment with 11m or 11t (2, 4, and 8 μM) for 24 h. The medium was then replaced with fresh culture medium, and after 7 days, the culture medium was removed and washed with PBS. Cells were fixed with 4% paraformaldehyde at room temperature for 20 min, stained with 0.1% crystal violet staining solution at room temperature for 20 min, and excess staining solution was washed off with distilled water. The plates were dried at 37 °C, photographed, and the number of colonies was counted using ImageJ.
# HepG2 cells [2] = assay: CCK8 cell viability / IC50 assay on HepG2 cells; details: for % Cell Viability (10 μM): 72 h; for IC50: read-out: HepG2, IC50 (μM) 72 h
# normal liver cells (L02) = assay: CCK8 toxicity against normal liver cells (L02); details: Figure 3
# HepG2 cells [3] = assay: DAPI staining for apoptotic morphology; type: cell-based, human; details: HepG2, 2, 4, 8 μM, 48 h
# Method: To confirm the apoptosis-inducing activity of 11m and 11t in liver cancer cells, HepG2 cells were treated with different concentrations of compounds 11m and 11t for 48 h, followed by DAPI staining.
# HepG2 cells were seeded in 48-well plates and incubated for 24 h, then treated with different concentrations of 11m and 11t (2, 4, and 8 μM) for 48 h. After removing the original culture medium, the cells were washed with PBS and fixed with 4% paraformaldehyde at room temperature for 20 min. After washing with PBS, the cells were stained with DAPI (10 μg/mL) in the dark at room temperature for 5 min. After washing with PBS, apoptotic morphological changes were observed using a fluorescence microscope.
# HepG2 cells [4] = assay: Transwell migration assay; type: cell-based, human; details: HepG2, 2, 4, 8 μM, 48 h, vs control, p < 0.01
# From the text: To investigate the effect of the compounds on the migration of wild-type liver cancer cells, we conducted wound healing and Transwell assays to assess changes in the migration ability of HepG2 cells after treatment with compounds 11m and 11t. […] The Transwell migration assay, another important method for evaluating cell migration, involves seeding tumor cells in a chamber and assessing their migration ability by counting the number of cells that pass through the membrane. […] These findings indicate that compounds 11m and 11t can inhibit the migration ability of liver cancer cells in a concentration-dependent manner.
# HepG2 cells were starved in serum-free Gibco DMEM for 24 h, then seeded in the upper chamber of a 24-well Transwell plate (Corning Inc., Corning, NY, USA) at a density of 5 × 10^5 cells/mL. 11m or 11t was added to achieve final concentrations of 0, 2, 4, and 8 μM. The upper chamber’s total volume was 200 μL, while the lower chamber contained 600 μL of Gibco DMEM with 20% serum. After 48 h of incubation, the culture medium was washed off with PBS, and the cells were fixed with 4% paraformaldehyde at room temperature for 20 min. […] Images were taken under an inverted microscope, and quantification was performed using ImageJ.
# [5] = system: Bcl-2/Caspase-3/PARP signaling pathway; assay: Western blot of apoptosis-related proteins in HepG2 cells; type: cell-based, human; details: 48 h; for expression level of Bcl-2 / expression level of Caspase-3 / expression level of Caspase-9 / expression level of PARP / level of cleaved Caspase-3 / level of cleaved PARP: HepG2, 2, 4, 8 μM; for expression of Bax: HepG2, with increasing drug concentration
# From the text: We conducted an in-depth study on the mechanisms of apoptosis induced by compounds 11m and 11t (Figure 9). The Bcl-2 protein family is located upstream in the apoptosis signaling pathway, with Bcl-2 exerting anti-apoptotic and pro-proliferative effects by inhibiting the release of cytochrome C (cyt-c) from the mitochondria. Previous studies have reported that many anticancer drugs exert pro-apoptotic effects by downregulating Bcl-2. When apoptosis occurs, the expression level of Bcl-2 is suppressed, cyt-c is released, and it binds to apoptotic protease activating factor (Apaf-1) to form the apoptosome, triggering a cascade reaction involving the Caspase family proteins. The apoptosome first promotes the activation of Caspase-9, which in turn activates Caspase-3, forming cleaved Caspase-3. Cleaved Caspase-3 further activates downstream PARP proteins, ultimately promoting apoptosis. […] After treating HepG2 cells with different concentrations of the compounds for 48 h, we extracted cellular proteins and used Western blotting to detect changes in the expression of apoptosis-related proteins. […] The expression levels of Caspase-3, Caspase-9, and PARP decreased with increasing drug concentration, whereas the levels of cleaved Caspase-3 and cleaved PARP increased.
# HepG2 cells were seeded in 6-well plates and incubated for 24 h. They were then treated with 11m or 11t at concentrations of 2, 4, or 8 μM for 48 h. The cells were harvested, and cytoplasmic and nuclear proteins were extracted using cell lysis buffer from Beyotime Biotechnology (Shanghai, China). Protein supernatants were mixed with loading buffer, denatured at 100 °C for 10 min, and quantified using BCA. Equal amounts of protein, along with molecular weight markers, were loaded onto a 12% SDS-PAGE gel and separated by electrophoresis for 2 h. The separated proteins were transferred onto NC membranes, and nonspecific binding sites on the membranes were blocked with 5% skim milk. Membranes were incubated with primary antibodies overnight at 4 °C, followed by incubation with HRP-conjugated secondary antibodies (goat anti-rabbit or goat anti-mouse IgG) at room temperature for 2 h. Protein bands were visualized on NC membranes using ECL ultra-sensitive chemiluminescence solution and a Bio-Rad gel imaging and analysis system.
# HepG2 cells [6] = assay: Annexin V-FITC/PI dual staining, flow cytometry apoptosis; type: cell-based, human; details: 48 h
# Method: HepG2 cells were treated with DMSO or different concentrations of 11m and 11t for 48 h, followed by staining with Annexin-V and PI. The proportion of apoptotic cells was then analyzed using flow cytometry. […] Compared to the control group, the proportion of apoptotic cells increased gradually with increasing drug concentrations (p < 0.01, p < 0.05).
# HepG2 cells were seeded in 6-well plates at a density of […] and incubated for 24 h. They were then treated with 11m or 11t at concentrations of 2, 4, and 8 μM for 48 h. After digestion with trypsin without EDTA and washing with PBS, the cells were resuspended in 500 µL Binding Buffer at a concentration of 1 × 10^6 cells/mL. Then, 5 μL of Annexin V-FITC was added, mixed well, followed by the addition of 5 μL Propidium Iodide, mixed gently, and incubated in the dark at room temperature (25 °C) for 10 min. Detection was performed using a flow cytometer (BD Accuri™ C6 Plus) within 1 h.
Compound,colony formation in HepG2 cells (HepG2 cells [1]; 4 μM),colony formation in HepG2 cells (HepG2 cells [1]; 8 μM),% Cell Viability (10 μM) (HepG2 cells [2]),IC50 (HepG2 cells [2]),toxicity against normal liver cells (L02) (normal liver cells (L02)),apoptotic morphological changes (DAPI staining) (HepG2 cells [3]),number of cells that migrated through the microporous membrane (HepG2 cells [4]),expression level of Bcl-2 [5],expression level of Caspase-3 [5],expression level of Caspase-9 [5],expression level of PARP [5],level of cleaved Caspase-3 [5],level of cleaved PARP [5],expression of Bax [5],total proportion of apoptotic HepG2 cells (HepG2 cells [6]; 2 μM),total proportion of apoptotic HepG2 cells (HepG2 cells [6]; 4 μM),total proportion of apoptotic HepG2 cells (HepG2 cells [6]; 8 μM)
"COc1cc2ncnc(Nc3cccc(-c4cn(Cc5ccc(I)cc5)nn4)c3)c2cc1OCCCN1CCOCC1 [Compound 11m, N-(3-(1-(4-iodobenzyl)-1H-1,2,3-triazol-4-yl)phenyl)-7-methoxy-6-(3-morpholinopropoxy)quinazolin-4-amine]",began to noticeably inhibit colony formation,almost completely suppressed,5.86 ± 0.04%,3.08 ± 0.37 µM,favorable safety profile,typical apoptotic characteristics,significantly reduced,decreased,decreased,decreased,decreased,increased,increased,increased,1.59%,9.46%,31.66%
"COc1cc2ncnc(Nc3cccc(-c4cn(Cc5cccc(I)c5)nn4)c3)c2cc1OCCCN1CCOCC1 [Compound 11t, N-(3-(1-(3-iodobenzyl)-1H-1,2,3-triazol-4-yl)phenyl)-7-methoxy-6-(3-morpholinopropoxy)quinazolin-4-amine]",began to noticeably inhibit colony formation,almost completely suppressed,5.22 ± 0.36%,3.6 ± 0.53 µM,favorable safety profile,typical apoptotic characteristics,significantly reduced,decreased,decreased,decreased,decreased,increased,increased,increased,13.44%,33.57%,62.82%
